Assay results reported in ChEMBL document CHEMBL3217460, “Interactions of polysulfanes with components of red blood cells” (Medchemcomm, 2011).
Calls of active or inactive are those of the source. No cut-off for these calls is given here.

Biological target: T1, Hemoglobin HbA (Homo sapiens) (UniProt P69905+P68871)
Assay: Binding affinity to human hemoglobin at 100 to 300 uM by UV-Vis spectrophotometric analysis

T1 sequence (P68871 2-147 partner limits assumed): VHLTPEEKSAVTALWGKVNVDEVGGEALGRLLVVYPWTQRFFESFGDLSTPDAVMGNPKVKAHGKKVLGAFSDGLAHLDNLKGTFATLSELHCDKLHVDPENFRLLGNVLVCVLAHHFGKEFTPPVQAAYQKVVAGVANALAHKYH
T1 sequence (P69905 2-142 limits assumed): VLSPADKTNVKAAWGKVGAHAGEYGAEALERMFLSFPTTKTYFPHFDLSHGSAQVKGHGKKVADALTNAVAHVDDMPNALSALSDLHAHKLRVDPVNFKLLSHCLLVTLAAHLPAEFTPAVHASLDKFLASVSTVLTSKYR

With `C=CCSCC=C` as the molecule, how does the Activity read?
Its Activity is “Active”.

For `C=CCSSCC=C`, which Activity is on record?
The Activity was “Active”.

Which Activity does the source give for `C=CCSSSSCC=C` here?
The Activity was “Active”.

Which Activity does the source give for `C=CCSSSCC=C` here?
The Activity was “Active”.

System: Erythrocyte
Assay: Hemolytic activity in human RBC assessed as phosphatidylserine exposure on outer leaflet of cell membrane at 50 uM after 20 mins by annexin V-FITC staining-based FACS analysis
Assay type: functional

Which Activity does the source give for `C=CCSCC=C` here?
Its Activity is “Active”.

For `C=CCSSCC=C`, which Activity is on record?
Its Activity is “Active”.

Which Activity does the source give for `C=CCSSSSCC=C` here?
The Activity was “Active”.

Which Activity does the source give for `C=CCSSSCC=C` here?
Its Activity is “Active”.

Which Activity does the source give for `C=CCS` here?
Its Activity is “Active”.

System: not listed separately
Assay: physchem

With `C=CCCCCCCC=C` as the molecule, how does the logP at 1000 µM read?
Its logP at 1000 µM is 4.71.

For `C=CCSSCC=C`, which logP at 1000 µM is on record?
The logP at 1000 µM was 2.72.

System: Erythrocyte
Assay: Hemolytic activity in human RBC assessed as oxidation of hemoglobin to methemoglobin after 30 mins by UV-Vis spectrophotometric analysis
Assay type: functional, cell-based

With `C=CCSSSSCC=C` as the molecule, how does the Activity read?
Its Activity is “Dose-dependent effect”.

Which Activity does the source give for `C=CCSSSCC=C` here?
Its Activity is “Dose-dependent effect”.

Biological target: T1, Hemoglobin HbA (Homo sapiens)
Assay: Binding affinity to human hemoglobin by CD spectroscopic analysis

With `C=CCSCC=C` as the molecule, how does the Activity read?
Its Activity is “Active”.

Which Activity does the source give for `C=CCSSCC=C` here?
The Activity was “Active”.

With `C=CCSSSSCC=C` as the molecule, how does the Activity read?
Its Activity is “Active”.

Which Activity does the source give for `C=CCSSSCC=C` here?
The Activity was “Active”.
